Consider one molecule from PMC10661859 (Science signaling, 2023).

The target in the experiment is T1, His-PtcC (Ptc C-terminal tail) (Drosophila melanogaster, UniProt P18502).
T1 sequence (P18502 1105-1286): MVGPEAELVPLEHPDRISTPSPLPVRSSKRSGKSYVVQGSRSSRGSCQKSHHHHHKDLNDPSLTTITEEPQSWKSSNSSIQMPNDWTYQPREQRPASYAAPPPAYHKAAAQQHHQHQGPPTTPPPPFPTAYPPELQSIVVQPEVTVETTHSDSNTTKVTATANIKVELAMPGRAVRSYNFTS
Description: solid-phase lipid dot blot. It is filed as binding. The note with it: 2 ul of 50 uM lipid on PVDF; 1 ug/ml protein in PBS; 4 C overnight.

Counter-ions that a name gives are not always drawn.

Take `CCCCCCCCCCCCCCCCCC(=O)OC[C@H](COP(=O)(O)O)OC(=O)CCCCCCCCCCCCCCCCC` [DSPA, 1,2-Distearoyl-sn-glycero-3-phosphate (sodium salt)]: the “solid-phase lipid dot blot” value is “His-PtcC interacted only with DSPA and DPPA, both of which are saturated forms of PA”.
